Laboratory results as given in ChEMBL document CHEMBL5465560, “Selectivity Literature for EUbOPEN Chemogenomic Library” (2024).

Experiments:
[1] = target: Ribosomal protein S6 kinase alpha-4 (Homo sapiens) (UniProt O75676); assay: Selectivity interaction (KinomeScan (DiscoverX)) EUB0000229b RPS6KA4; conditions: at 10 µM
[2] = target: Mitogen-activated protein kinase 9 (Homo sapiens, UniProt P45984); assay: Selectivity interaction (ProQinase) EUB0000171b MAPK9
[3] = target: Kappa-type opioid receptor (Homo sapiens, UniProt P41145); assay: Selectivity interaction (Panel of kinases, GPCRs, ion channels and transporters (enzymatic assay)) EUB0000266bCl OPRK1
[4] = target: Serine/threonine-protein kinase pim-3 (Homo sapiens) (UniProt Q86V86); conditions: at 10 µM
[5] = target: 5'-AMP-activated protein kinase catalytic subunit alpha-2 (Homo sapiens) (UniProt P54646); conditions: at 10 µM
[6] = target: T1, Protein kinase C iota type (Homo sapiens) (UniProt P41743); assay: Selectivity interaction (ActivX KiNativ screen (kinase selectivity in THP-1 cell lysates)) EUB0000639a PRKCI; assay type: subcellular; conditions: lysate, at 5 µM
T1 sequence (whole entry): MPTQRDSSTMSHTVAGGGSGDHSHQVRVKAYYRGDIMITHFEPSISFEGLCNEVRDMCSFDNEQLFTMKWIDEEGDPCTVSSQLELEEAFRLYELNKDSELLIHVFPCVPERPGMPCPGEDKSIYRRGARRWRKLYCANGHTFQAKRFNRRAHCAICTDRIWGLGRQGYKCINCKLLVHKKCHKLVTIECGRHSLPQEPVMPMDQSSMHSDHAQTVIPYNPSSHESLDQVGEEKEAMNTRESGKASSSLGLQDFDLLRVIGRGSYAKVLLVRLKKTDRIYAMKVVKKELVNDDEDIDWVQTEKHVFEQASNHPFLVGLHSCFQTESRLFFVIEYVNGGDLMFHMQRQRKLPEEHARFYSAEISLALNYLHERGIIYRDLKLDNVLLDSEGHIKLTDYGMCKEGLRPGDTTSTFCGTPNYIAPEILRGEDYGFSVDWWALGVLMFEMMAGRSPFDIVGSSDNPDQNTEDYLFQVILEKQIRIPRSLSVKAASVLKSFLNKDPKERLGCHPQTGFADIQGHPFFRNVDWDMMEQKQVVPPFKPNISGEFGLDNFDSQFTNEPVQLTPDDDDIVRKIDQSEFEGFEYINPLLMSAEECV

[7] = target: Interferon-induced, double-stranded RNA-activated protein kinase (Homo sapiens) (UniProt P19525); assay: Selectivity interaction (KinomeScan (DiscoverX)) EUB0000607a EIF2AK2; conditions: at 10 µM
[8] = target: Tyrosine-protein kinase Yes (Homo sapiens) (UniProt P07947); assay: Selectivity interaction (KinomeScan (DiscoverX)) EUB0000695a YES1; conditions: at 100 nM
[9] = test system: Mast/stem cell growth factor receptor Kit (Homo sapiens), P10721 [A829P]; assay: (§1) Selectivity interaction (KinomeScan (DiscoverX)) EUB0000045b KIT
[10] = test system: Mast/stem cell growth factor receptor Kit (Homo sapiens), P10721 [D816H]; assay: as §1
[11] = test system: Mast/stem cell growth factor receptor Kit (Homo sapiens), P10721 [D816V]; assay: as §1
[12] = test system: Mast/stem cell growth factor receptor Kit (Homo sapiens), P10721 [L576P]; assay: as §1
[13] = test system: Mast/stem cell growth factor receptor Kit (Homo sapiens), P10721 [V559D,V654A]; assay: as §1
[14] = test system: Mast/stem cell growth factor receptor Kit (Homo sapiens), P10721 [V559D]; assay: as §1
[15] = target: Mast/stem cell growth factor receptor Kit (Homo sapiens, UniProt P10721); assay: as §1
[16] = test system: Mast/stem cell growth factor receptor Kit (Homo sapiens), P10721 [V559D,T670I]; assay: as §1
[17] = target: T2, Serine/threonine-protein kinase TBK1 (Homo sapiens) (UniProt Q9UHD2); assay: Selectivity interaction (ActivX KiNativ screen (ex vivo kinase selectivity in human PBMCs)) EUB0001619a TBK1; assay type: cell-based; conditions: PBMC, at 1 µM
T2 sequence (whole entry): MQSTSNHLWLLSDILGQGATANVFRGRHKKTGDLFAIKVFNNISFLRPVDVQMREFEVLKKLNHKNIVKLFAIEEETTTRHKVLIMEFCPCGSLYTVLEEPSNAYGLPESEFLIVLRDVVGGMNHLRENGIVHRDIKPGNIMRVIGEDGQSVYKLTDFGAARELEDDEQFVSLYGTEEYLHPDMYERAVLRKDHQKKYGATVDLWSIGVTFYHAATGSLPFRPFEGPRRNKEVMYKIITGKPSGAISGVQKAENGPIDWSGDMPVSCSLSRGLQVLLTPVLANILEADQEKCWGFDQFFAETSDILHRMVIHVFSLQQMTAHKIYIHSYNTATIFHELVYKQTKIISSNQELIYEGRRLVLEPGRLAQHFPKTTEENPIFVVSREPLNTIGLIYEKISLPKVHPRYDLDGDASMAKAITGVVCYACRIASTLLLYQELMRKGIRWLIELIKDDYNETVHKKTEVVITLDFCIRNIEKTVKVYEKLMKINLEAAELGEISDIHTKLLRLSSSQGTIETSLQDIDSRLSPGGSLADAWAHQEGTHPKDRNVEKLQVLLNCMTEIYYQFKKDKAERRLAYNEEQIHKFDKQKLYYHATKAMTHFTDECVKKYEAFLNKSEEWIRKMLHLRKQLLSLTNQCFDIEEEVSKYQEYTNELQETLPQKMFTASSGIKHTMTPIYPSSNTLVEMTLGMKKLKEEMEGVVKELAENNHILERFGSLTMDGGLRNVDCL

Mast/stem cell growth factor receptor Kit (Homo sapiens), P10721 [A829P], sequence (P10721 whole entry A829P): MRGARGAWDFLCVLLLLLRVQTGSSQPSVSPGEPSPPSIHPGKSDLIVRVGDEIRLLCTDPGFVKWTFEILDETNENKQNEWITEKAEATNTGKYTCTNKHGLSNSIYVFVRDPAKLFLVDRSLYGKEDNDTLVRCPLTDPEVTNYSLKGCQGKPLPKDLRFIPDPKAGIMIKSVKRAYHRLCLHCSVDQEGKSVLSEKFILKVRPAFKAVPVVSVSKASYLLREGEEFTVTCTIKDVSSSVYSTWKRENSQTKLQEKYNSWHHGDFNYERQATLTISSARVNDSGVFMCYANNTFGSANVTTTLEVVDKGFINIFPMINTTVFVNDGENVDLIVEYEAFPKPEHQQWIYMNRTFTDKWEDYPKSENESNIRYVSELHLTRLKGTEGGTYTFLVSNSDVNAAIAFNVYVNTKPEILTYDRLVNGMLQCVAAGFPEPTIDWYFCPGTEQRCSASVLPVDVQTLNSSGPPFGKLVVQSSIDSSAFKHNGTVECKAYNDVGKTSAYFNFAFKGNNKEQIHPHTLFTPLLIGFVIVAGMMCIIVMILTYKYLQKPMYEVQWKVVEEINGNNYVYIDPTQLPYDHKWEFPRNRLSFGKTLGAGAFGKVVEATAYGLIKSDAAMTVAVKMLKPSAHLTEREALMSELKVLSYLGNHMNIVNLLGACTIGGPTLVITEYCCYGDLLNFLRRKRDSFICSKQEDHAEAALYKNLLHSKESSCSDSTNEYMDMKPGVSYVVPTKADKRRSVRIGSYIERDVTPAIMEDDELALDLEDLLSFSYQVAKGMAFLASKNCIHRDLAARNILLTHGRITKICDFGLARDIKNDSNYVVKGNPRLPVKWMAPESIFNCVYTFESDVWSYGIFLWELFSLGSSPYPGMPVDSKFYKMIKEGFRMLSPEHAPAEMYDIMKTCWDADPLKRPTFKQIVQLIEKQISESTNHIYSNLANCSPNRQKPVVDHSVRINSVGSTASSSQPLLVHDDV
Mast/stem cell growth factor receptor Kit (Homo sapiens), P10721 [V559D,T670I], sequence (P10721 whole entry V559D/T670I): as the sequence (P10721 whole entry A829P) above, with V559D, T670I, P829A counted along it
Mast/stem cell growth factor receptor Kit, sequence (P10721 whole entry): as the sequence (P10721 whole entry A829P) above, with P829A counted along it
Mitogen-activated protein kinase 9, sequence (P45984 whole entry, looked up): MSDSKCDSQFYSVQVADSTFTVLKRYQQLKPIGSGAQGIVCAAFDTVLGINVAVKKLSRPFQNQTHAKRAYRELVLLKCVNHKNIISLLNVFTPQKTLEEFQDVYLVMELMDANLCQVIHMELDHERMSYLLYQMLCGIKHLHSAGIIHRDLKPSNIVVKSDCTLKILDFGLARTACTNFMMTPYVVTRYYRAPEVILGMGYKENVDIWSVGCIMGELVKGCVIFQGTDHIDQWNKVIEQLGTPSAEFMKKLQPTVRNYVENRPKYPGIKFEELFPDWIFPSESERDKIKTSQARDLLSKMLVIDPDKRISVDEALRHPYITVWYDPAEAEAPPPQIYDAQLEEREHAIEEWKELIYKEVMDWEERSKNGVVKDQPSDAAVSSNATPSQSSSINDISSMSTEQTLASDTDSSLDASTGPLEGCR
Mast/stem cell growth factor receptor Kit (Homo sapiens), P10721 [V559D], sequence (P10721 whole entry V559D): as the sequence (P10721 whole entry A829P) above, with V559D, P829A counted along it
Interferon-induced, double-stranded RNA-activated protein kinase (Homo sapiens), sequence (P19525 whole entry): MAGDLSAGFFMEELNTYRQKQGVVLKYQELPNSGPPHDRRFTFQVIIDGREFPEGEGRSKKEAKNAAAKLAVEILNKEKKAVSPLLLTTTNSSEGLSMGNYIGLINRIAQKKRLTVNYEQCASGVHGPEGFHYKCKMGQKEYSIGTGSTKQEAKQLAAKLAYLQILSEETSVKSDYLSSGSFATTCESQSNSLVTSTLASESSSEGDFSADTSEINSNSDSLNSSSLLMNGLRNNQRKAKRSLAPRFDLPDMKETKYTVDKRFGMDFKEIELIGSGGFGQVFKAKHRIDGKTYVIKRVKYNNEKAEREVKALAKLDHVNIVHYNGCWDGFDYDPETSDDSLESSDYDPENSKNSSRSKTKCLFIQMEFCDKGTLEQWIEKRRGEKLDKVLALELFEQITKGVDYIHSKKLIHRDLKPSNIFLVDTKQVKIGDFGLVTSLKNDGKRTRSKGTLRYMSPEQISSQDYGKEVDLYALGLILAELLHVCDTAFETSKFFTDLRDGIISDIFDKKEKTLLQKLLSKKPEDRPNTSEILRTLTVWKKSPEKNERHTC

COc1cc(N(C)c2ccnc3ccc(C(F)(F)F)cc23)cc(OC)c1OC
% binding [1]: 72%

C=CC(=O)Nc1cccc(C(=O)Nc2ccc(Nc3cc(-c4[nH]c(SC)nc4C)ccn3)cc2)c1
% of control ([2]; at 1 µM): 8% | % of control ([2]; at 5 µM): 1%

CCn1c(-c2nc3cc(C(=O)N4CCCC(N)C4)ccc3n2C)cc2ccccc21 (stereo unspecified)
pXC50 [3]: > 4 M

Cc1cc([C@@H](C)Nc2ccccc2C(=O)O)c2nc(N3CCOCC3)cc(=O)n2c1 [AZD-6482]
% of control [4]: 100% | % of control [5]: 88%

CC[C@@H]1[C@H](F)C(=O)N[C@@H]1COc1nccc2cc(C(N)=O)c(OC)cc12 [ZIMLOVISERTIB]
% of inhibition [6]: 14.6%

CNC(=O)Nc1ccc(-c2nc(N3CC4CCC(C3)O4)c3cnn(C4CCC5(CC4)OCCO5)c3n2)cc1
% of control [7]: 100%

Cc1cc(F)c(C(=O)Nc2cccc(-c3nncn3C(C)C)n2)cc1-n1cnc(C2CC2)c1
% of control [8]: 73%

C=CC(=O)Nc1cc(-n2c(=O)ccc3cnc4ccc(-c5ccc(NS(C)(=O)=O)cc5)cc4c32)ccc1C
% of control ([9]; at 1 µM): 74% | % of control ([9]; at 10 µM): 81% | % of control ([10]; at 1 µM): 99% | % of control ([10]; at 10 µM): 100% | % of control ([11]; at 1 µM): 69% | % of control ([11]; at 10 µM): 73% | % of control ([12]; at 1 µM): 100% | % of control ([12]; at 10 µM): 83% | % of control ([13]; at 1 µM): 100% | % of control ([13]; at 10 µM): 100% | % of control ([14]; at 1 µM): 87% | % of control ([14]; at 10 µM): 88% | % of control ([15]; at 1 µM): 89% | % of control ([15]; at 10 µM): 89% | % of control ([16]; at 1 µM): 100% | % of control ([16]; at 10 µM): 91%

N#Cc1cccc(-c2c[nH]c3ncnc(N4CCOCC4)c23)c1
% of inhibition [17]: 19%
